A word on the Ki: it is a dissociation constant, usually derived from enzyme kinetics or from competition with a known ligand. A lower Ki goes with a stronger hold on the target.

Common to all, as to assay type: cell-based
The target of assay [1] is Beta-1 adrenergic receptor (Mus musculus, UniProt P34971). Nature of the assay: Displacement of [3H]-CGP-12177 from murine beta1-adrenergic receptor expressed in HEK293T cells after 60 mins by radioligand competition binding assay.
The target in assay [2] is T1, Beta-2 adrenergic receptor (Homo sapiens, UniProt P07550). Nature of the assay: Displacement of [3H]-CGP-12177 from human beta2-adrenergic receptor expressed in CHO cells after 60 mins by radioligand competition binding assay. (In general: Displacement assays read how much labelled ligand stays bound in the presence of the test substance.)
Assay [3] addresses T2, Beta-1 adrenergic receptor (Homo sapiens, UniProt P08588). Nature of the assay: Agonist activity at beta1-adrenergic receptor (unknown origin) expressed in HEK293T cells harboring Rluc2-117-GalphaS/GFP10-Ggamma/Gbeta1 assessed as activation of GalphaS incubated for 5 mins in presence of coelenterazine 400a by BRET assay. On the technique in general: BRET reads energy transfer from a luciferase to a nearby fluorophore.

The target of assay [4] is T2, Beta-1 adrenergic receptor. Nature of the assay: Agonist activity at beta1-adrenergic receptor (unknown origin) expressed in HEK293T cells harboring GFP/Rluc2-tagged beta-arrestin2 assessed as increase in beta-arrestin2 recruitment incubated for 5 mins in presence of coelenterazine 400a by BRET assay. For orientation: Arrestin recruitment assays detect the binding of arrestin to an activated receptor.

The target of assay [5] is T2, Beta-1 adrenergic receptor. Nature of the assay: Agonist activity at beta1-adrenergic receptor (unknown origin) expressed in HEK293T cells harboring GFP/Rluc2-tagged beta-arrestin2 assessed as increase in beta-arrestin2 recruitment incubated for 5 mins in presence of GRK2 and coelenterazine 400a by BRET assay.
Assay [6] deals with T2, Beta-1 adrenergic receptor. Nature of the assay: Agonist activity at beta1-adrenergic receptor (unknown origin) expressed in HEK293T cells harboring GFP/Rluc2-tagged beta-arrestin2 assessed as increase in beta-arrestin2 recruitment incubated for 5 mins in presence of GRK5 and coelenterazine 400a by BRET assay.
Assay [7] deals with T1, Beta-2 adrenergic receptor. Nature of the assay: Agonist activity at beta2-adrenergic receptor (unknown origin) expressed in HEK293T cells harboring Rluc2-117-GalphaS/GFP10-Ggamma/Gbeta1 assessed as activation of GalphaS incubated for 5 mins in presence of coelenterazine 400a by BRET assay.
The target in assay [8] is T1, Beta-2 adrenergic receptor. Nature of the assay: Agonist activity at beta2-adrenergic receptor (unknown origin) expressed in HEK293T cells harboring GFP/Rluc2-tagged beta-arrestin2 assessed as increase in beta-arrestin2 recruitment incubated for 5 mins in presence of GSK2 and coelenterazine 400a by BRET assay.
In assay [9] the target is T1, Beta-2 adrenergic receptor. Nature of the assay: Agonist activity at beta2-adrenergic receptor (unknown origin) expressed in HEK293T cells harboring GFP/Rluc2-tagged beta-arrestin2 assessed as increase in beta-arrestin2 recruitment incubated for 5 mins in presence of GSK5 and coelenterazine 400a by BRET assay.
The target in assay [10] is T1, Beta-2 adrenergic receptor. Nature of the assay: Agonist activity at beta2-adrenergic receptor (unknown origin) expressed in HEK293T cells harboring GFP/Rluc2-tagged beta-arrestin2 assessed as increase in beta-arrestin2 recruitment incubated for 5 mins in presence of coelenterazine 400a by BRET assay.

T2 sequence (P08588 whole entry): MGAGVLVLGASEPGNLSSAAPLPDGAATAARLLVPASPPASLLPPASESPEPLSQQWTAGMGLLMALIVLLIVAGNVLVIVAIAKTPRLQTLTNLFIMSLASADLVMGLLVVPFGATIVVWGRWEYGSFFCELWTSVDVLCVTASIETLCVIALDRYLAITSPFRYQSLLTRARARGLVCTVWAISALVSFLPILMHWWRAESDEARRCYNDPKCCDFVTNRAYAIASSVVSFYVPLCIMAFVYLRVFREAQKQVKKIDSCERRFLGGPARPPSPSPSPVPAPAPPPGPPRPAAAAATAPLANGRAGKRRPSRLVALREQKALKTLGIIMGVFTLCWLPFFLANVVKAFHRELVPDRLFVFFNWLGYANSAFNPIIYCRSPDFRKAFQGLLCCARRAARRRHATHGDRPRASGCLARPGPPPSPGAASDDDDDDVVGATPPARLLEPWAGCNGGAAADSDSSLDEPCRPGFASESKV
T1 sequence (P07550 whole entry): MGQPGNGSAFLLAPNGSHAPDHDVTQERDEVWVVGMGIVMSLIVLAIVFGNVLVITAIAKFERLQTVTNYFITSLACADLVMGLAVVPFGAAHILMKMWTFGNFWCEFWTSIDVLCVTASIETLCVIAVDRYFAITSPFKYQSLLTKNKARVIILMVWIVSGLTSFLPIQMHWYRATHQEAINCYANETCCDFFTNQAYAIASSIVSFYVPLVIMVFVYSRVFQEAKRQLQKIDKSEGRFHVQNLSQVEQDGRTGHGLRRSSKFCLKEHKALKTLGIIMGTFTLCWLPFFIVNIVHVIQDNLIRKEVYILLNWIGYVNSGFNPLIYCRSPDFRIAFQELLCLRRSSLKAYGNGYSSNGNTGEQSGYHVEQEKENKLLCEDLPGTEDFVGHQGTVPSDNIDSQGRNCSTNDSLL
Chain of Beta-1 adrenergic receptor (Mus musculus, UniProt P34971) (P34971 whole entry): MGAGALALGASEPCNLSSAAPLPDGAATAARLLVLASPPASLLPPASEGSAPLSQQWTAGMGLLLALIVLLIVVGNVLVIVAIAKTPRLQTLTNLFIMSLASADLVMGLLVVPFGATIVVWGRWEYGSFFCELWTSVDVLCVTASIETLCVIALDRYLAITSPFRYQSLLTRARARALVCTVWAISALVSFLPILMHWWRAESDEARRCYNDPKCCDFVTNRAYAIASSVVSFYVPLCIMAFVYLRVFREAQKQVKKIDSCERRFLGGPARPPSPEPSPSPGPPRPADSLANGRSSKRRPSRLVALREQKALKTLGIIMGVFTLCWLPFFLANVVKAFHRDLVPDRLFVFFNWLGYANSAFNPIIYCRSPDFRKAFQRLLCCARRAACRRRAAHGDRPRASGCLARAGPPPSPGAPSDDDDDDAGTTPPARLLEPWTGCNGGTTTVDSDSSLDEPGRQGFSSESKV

On to `CC(C)NC[C@H](O)COc1ccc(O)c(O)c1`, for which the figures for the Ki in assay [1] and in assay [2] were 14 nM and 12 nM, respectively. Further, the EC50 is 631 nM in assay [3] (read-out: pEC50 (converted)); 631 nM in assay [4]; 1000 nM in assay [5]; 316 nM in assay [6]; 794 nM in assay [7]; 316 nM in assay [8]. The EC50 in [9] was 251 nM.
`COc1ccccc1OCCNC[C@H](O)c1ccc(O)c(O)c1`: the EC50 in assay [3] (read-out: pEC50 (converted)) was 39.8 nM; in assay [4], 79.4 nM; in assay [5] it was 63.1 nM; in [6], 51.3 nM; in [7], 63.1 nM; in [10], 269 nM. The EC50 is 158 nM in assay [8] and 100 nM in assay [9].
Take `COc1cc(CCNC[C@H](O)c2ccc(O)c(O)c2)ccc1OCCCc1ccccc1`: the EC50 in assay [3] (read-out: pEC50 (converted)) is 2000 nM; in [4], 794 nM; in assay [5], 794 nM; in [6], 501 nM; in [7] it was 100 nM; in [10], 724 nM. For the same compound, the results for the EC50 in assay [8] and in [9] were 501 nM and 417 nM, respectively.
Regarding `COc1ccccc1OCCNC[C@H](O)COc1ccc(O)c(O)c1`, the figures for the Ki in assay [1] and in assay [2] were 12 nM and 21 nM, respectively. The EC50 in assay [3] (read-out: EC50) was 300 to 800 nM; in assay [3] (read-out: pEC50 (converted)), 794 nM; in [4], 316 nM; in [5] it was 398 nM; in [6], 398 nM; in assay [7], 12600 nM. Further, the EC50 in assay [8] was 794 nM; in assay [9], 631 nM.
For `COc1ccccc1OCCNCCc1cccc2[nH]c3ccccc3c12`, the inhibition constant (Ki) in assay [1] is 330 nM; in assay [2] it was 26 nM.
Consider `COc1cc(CCNCCCOc2ccc(O)c(O)c2)ccc1OCCCc1ccccc1`, for which the Ki in assay [1] was found to be 1200 nM; in [2], 700 nM.
The matching figures for `CC(C)NC[C@@H](O)COc1ccc(O)c(O)c1`: 860 nM and 420 nM.
For `COc1ccccc1OCCNC[C@@H](O)c1cccc2[nH]c3ccccc3c12`, in that order: 340 nM and 170 nM.
The matching figures for `COc1ccccc1OCCNC[C@H](O)c1cccc2[nH]c3ccccc3c12`: 6.6 nM and 3.3 nM.
For `COc1ccccc1OCCNC[C@@H](O)Cc1ccc(O)c(O)c1`, the Ki in [1] came to 2400 nM; in assay [2], 740 nM.
For `COc1ccccc1OCCNCCCOc1ccc(O)c(O)c1`, in that order: above 10000 nM and 3800 nM.
With `COc1cc(CCNC[C@@H](O)COc2ccc(O)c(O)c2)ccc1OCCCc1ccccc1`, the inhibition constant (Ki) was 310 nM in [1] and 120 nM in [2].
For `COc1ccccc1OCCNCCCOc1cccc2[nH]c3ccccc3c12`, in that order: 24 nM and 5.4 nM.
With `COc1ccccc1OCCNC[C@@H](O)COc1ccc(O)c(O)c1`, the Ki stood at 7400 nM in [1] and 7900 nM in assay [2].
As for `COc1ccccc1OCCNC[C@H](O)Cc1ccc(O)c(O)c1`, the Ki was above 10000 nM in assay [1] and 5200 nM in assay [2].
The matching figures for `COc1ccccc1OCCNCCCc1ccc(O)c(O)c1`: above 10000 nM and 920 nM.
For the compound `CC(C)NCCCOc1ccc(O)c(O)c1`, the Ki was above 10000 nM in assay [1] and 6900 nM in assay [2].
In the case of `COc1cc(CCNC[C@H](O)COc2ccc(O)c(O)c2)ccc1OCCCc1ccccc1`, the Ki worked out at 6.5 nM in [1] and 7.2 nM in assay [2]. Further, the EC50 in assay [3] (read-out: pEC50 (converted)) is 2510 nM; in [4], 10000 nM; in assay [5], 2510 nM; in [6], 7940 nM; in assay [7] it was 12600 nM; in [9], 2000 nM.
In [1], `OCc1cc(C(O)CNCCCCCCOCCCCc2ccccc2)ccc1O` (racemic) [SALMETEROL] gave a Ki of 550 nM.
